Test results published in PubChem BioAssay (NCI).
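Cultured in 96-well plates, cells were exposed to test compound for 48 hours across five concentrations. Abbreviation: GI50, concentration required for 50% inhibition of growth. The concentration for full growth arrest is given as TGI.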

Key:
Assay in all cases: inhibition of tumour cell growth, NCI panel, 48 h
[1] = system: IGROV1 ovarian
[2] = system: DU-145 prostate
[3] = system: MOLT-4 leukemia
[4] = system: OVCAR-8 ovarian
[5] = system: SNB-75 CNS
[6] = system: NCI-H522 lung
[7] = system: UACC-62 melanoma
[8] = system: UO-31 renal
[9] = system: HCC-2998 colon
[10] = system: HOP-92 NSCLC
[11] = system: HT29 colon
[12] = system: HL-60(TB) leukemia
[13] = system: HCT-15 colon
[14] = system: SK-MEL-28 melanoma
[15] = system: COLO 205 colon
[16] = system: M14 melanoma
[17] = system: A549 NSCLC
[18] = system: OVCAR-4 ovarian
[19] = system: SK-MEL-5 melanoma
[20] = system: OVCAR-5 ovarian
[21] = system: MDA-MB-231 breast
[22] = system: RPMI-8226 leukemia
[23] = system: NCI-H226 lung
[24] = system: NCI-H23 lung
[25] = system: UACC-257 melanoma
[26] = system: NCI-H460 lung
[27] = system: K-562 leukemia
[28] = system: PC-3 prostate
[29] = system: ACHN renal

Q: Which GI50 [1] does the source give for `CN(C)CCNc1ccc2ncc(C#Cc3cncc(C(=O)Nc4ccc(CN5CCN(C)CC5)c(C(F)(F)F)c4)c3)n2n1` here?
A: 955 nM

Q: And the TGI [1]?
A: 3980 nM

Q: And the GI50 [2]?
A: 1000 nM

Q: What about the TGI [2] of the same compound?
A: 4180 nM

Q: What about the GI50 [3] of the same compound?
A: 226 nM

Q: And the TGI [3]?
A: 3420 nM

Q: And the GI50 [4]?
A: 672 nM

Q: And the TGI [4]?
A: 2840 nM

Q: What about the GI50 [5] of the same compound?
A: 185 nM

Q: What about the TGI [5] of the same compound?
A: 982 nM

Q: What about the GI50 [6] of the same compound?
A: 652 nM

Q: And the TGI [6]?
A: 1440 nM

Q: And the GI50 [7]?
A: 1770 nM

Q: And the TGI [7]?
A: 7870 nM

Q: What about the GI50 [8] of the same compound?
A: 1870 nM

Q: What about the TGI [8] of the same compound?
A: 8040 nM

Q: And the GI50 [9]?
A: 953 nM

Q: And the TGI [9]?
A: 2650 nM

Q: What about the GI50 [10] of the same compound?
A: 181 nM

Q: What about the TGI [10] of the same compound?
A: 1850 nM

Q: And the GI50 [11]?
A: 477 nM

Q: What about the TGI [11] of the same compound?
A: 1950 nM

Q: And the GI50 [12]?
A: 612 nM

Q: And the TGI [12]?
A: 1810 nM

Q: And the GI50 [13]?
A: 1570 nM

Q: What about the TGI [13] of the same compound?
A: 6000 nM

Q: What about the GI50 [14] of the same compound?
A: 5740 nM

Q: And the TGI [14]?
A: 12000 nM

Q: And the GI50 [15]?
A: 169 nM

Q: And the TGI [15]?
A: 541 nM

Q: And the GI50 [16]?
A: 1010 nM

Q: What about the TGI [16] of the same compound?
A: 3430 nM

Q: And the GI50 [17]?
A: 936 nM

Q: And the TGI [17]?
A: 5460 nM

Q: What about the GI50 [18] of the same compound?
A: 743 nM

Q: What about the TGI [18] of the same compound?
A: 2390 nM

Q: What about the GI50 [19] of the same compound?
A: 6000 nM

Q: And the TGI [19]?
A: 12500 nM

Q: What about the GI50 [20] of the same compound?
A: 1330 nM

Q: What about the TGI [20] of the same compound?
A: 5380 nM

Q: And the GI50 [21]?
A: 463 nM

Q: And the TGI [21]?
A: 1900 nM

Q: What about the GI50 [22] of the same compound?
A: 1150 nM

Q: And the TGI [22]?
A: 2900 nM

Q: And the GI50 [23]?
A: 483 nM

Q: What about the TGI [23] of the same compound?
A: 3050 nM

Q: And the GI50 [24]?
A: 764 nM

Q: And the TGI [24]?
A: 1830 nM

Q: What about the GI50 [25] of the same compound?
A: 4290 nM

Q: And the TGI [25]?
A: 11100 nM

Q: What about the GI50 [26] of the same compound?
A: 406 nM

Q: And the TGI [26]?
A: 1180 nM

Q: And the GI50 [27]?
A: 130 nM

Q: What about the TGI [27] of the same compound?
A: 2420 nM

Q: And the GI50 [28]?
A: 664 nM

Q: And the TGI [28]?
A: 3470 nM

Q: And the GI50 [29]?
A: 1770 nM

Q: And the TGI [29]?
A: 6580 nM
